pIC50: −log10 of the molar value. Non-standard residues stand in square brackets, D forms with d. Residues, ends and D or L forms follow the SMILES beside them. No end group written: not given here. *: point of attachment. Phe(4-N(CH2CH2Cl)2) = N[C@@H](Cc1ccc(N(CCCl)CCCl)cc1)C(=O)O; Chlorambucil = O=C(CCCc1ccc(N(CCCl)CCCl)cc1)*
Experiments:
[1] = system: Human melanoma cells (WW-94); assay: Tissue culture cell counting (cell coulter) after 72 hours, melanoma cells; type: cell-based; details: melanoma (cancer) cells, FIG. 4A, read-out: IC50 (concentration of the drug measured at 50% of the cell death)
Procedure: (§1) Human melanoma cells (WW-94) were grown in 50% DMEM/50% F-12 medium supplemented with 10% fetal calf serum and antibiotics.
(§2) To determine the biological activity of the drugs, HUVEC (normal cells) or melanoma (cancer) cells were seeded in 24-well dish at a concentration of 10,000-20,000 cells/well, and increasing concentrations of the prodrug 3-Peptide I-Chlorambucil (P-CAC) were added to the wells. As controls, either Cholorambucil or the peptide carrier was added under the same experimental conditions. After 72 hours the cells were washed with phosphate buffer saline (PBS), suspended with 0.5% EDTA/PBS, and counted using cell coulter (Electronics ZM). Cell viability was verified by trypan-blue staining and hemocytometer analysis. IC50 indicates the concentration of the drug measured at 50% of the cell death.

[2] = system: Human umbilical vein-derived endothelial cells (HUVEC); assay: Tissue culture cell counting (cell coulter) after 72 hours, HUVEC (normal cells); type: cell-based
Procedure: (§3) Human umbilical vein-derived endothelial cells (HUVEC) were prepared from umbilical veins and cultured as described previously. The HUVE cells were grown in M199 medium supplemented with 20% fetal calf serum, vitamins, 1 ng/ml hbFGF, and antibiotics.
as §2

HUVEC = assay: MTT assay for estimation of toxicity, HUVEC (normal cells); type: cell-based, human
Procedure: as §3
(§4) HUVEC or melanoma cells were seeded in 96-well ELISA dish at a concentration of 10,000-20,000 cells/well, and various concentrations of the prodrug 1 were added to the wells as described in Example 17. As a control, Melphalan was added under the same experimental conditions. After 72 hours the medium was aspirated, and DMEM containing 5% FCS and 0.5 mg/ml MTT (an indicator of cell viability) was added. The cells were incubated for 2-4 hours at 37° C. and 5% CO2. At the end of the incubation the cells were washed with phosphate buffer saline (PBS), and dissolved with DMSO. The results were analysed using Techan ELISA reader equipped with a 570 nm filter.

melanoma cells = assay: MTT assay for estimation of toxicity, melanoma cells; type: cell-based; details: Homo sapiens, 72 hours, FIG. 5B
Procedure: as §1, §4

purified MMPs = assay: In-vitro release of Chlorambucil from the peptide carrier by purified MMPs; type: biochemical
Procedure: (§5) In-vitro release of Chlorambucil from the peptide carrier was carried out in a liquid phase as described in Example 19. Peptide I-Chlorambucil was dissolved in PBS, and incubated for 2 hours at 37° C. in the absence or presence of purified MMPs, or in the presence of conditioned medium of either human melanoma cells (HMCM) or human breast cancer cells (BCCM).
(§6) At the end of the incubation the reaction mixture was incubated with heparin-sepharose (30 minutes at 0° C.). The supernatant was collected, and the release of free chlorambucil was monitored by spectrophotometer at a wavelengh of 305 nm.

[3] = system: MMPs secreted by cancer cells (conditioned medium of human melanoma cells HMCM or human breast cancer cells BCCM); assay: In-vitro release of Chlorambucil from the peptide carrier by cancer cell conditioned medium; type: biochemical; details: PBS, 2 hours at 37° C., FIG. 6
Procedure: To find out whether proteases are secreted to the conditioned medium of cancer cells, breast cancer cells or melanoma cells were grown to sub-confluence in a 10 cm dish. The cells were washed with PBS, and further incubated with serum free medium. HUVE cells were grown to confluence at 10 cm dish. The cells were washed with M-199 medium, and conditioned with M-199 with 1% heat inactivated serum. The conditioned medium was collected after 24 hours.
as §5, §6

Compound: O=C(O)CCCc1ccc(N(CCCl)CCCl)cc1 [Chlorambucil, reference compound]
- pIC50 [1]: 5.70
- pIC50 ([2]; Homo sapiens, HUVEC, HUVE (normal) cells, 72 hours, cell counting, FIG. 4B, read-out: IC50 (concentration of the drug measured at 50% of the cell death)): 5.70

Compound: N[C@@H](Cc1ccc(N(CCCl)CCCl)cc1)C(=O)O [Melphalan, reference compound]
- pIC50 (HUVEC; Homo sapiens, HUVEC, HUVE cells, 72 hours, FIG. 5A): 7.00
- pIC50 (melanoma cells): 7.15

Compound: CC[C@H](C)[C@H](NC(=O)CNC(=O)[C@H](CC(C)C)NC(=O)[C@H](CC(C)C)NC(=O)CNC(=O)[C@H](Cc1ccc(O)cc1)NC(=O)[C@@H](N)Cc1ccc(N(CCCl)CCCl)cc1)C(=O)N[C@@H](C)C(=O)NCC(=O)N1CCC[C@H]1C(=O)N1CCC[C@H]1C(=O)NCC(=O)N1CCC[C@H]1C(=O)N1CCC[C@H]1C(=O)N[C@@H](CC(C)C)C(=O)N[C@@H](Cc1ccc(O)cc1)C(=O)N[C@@H](CCCCN)C(=O)N[C@@H](CCCCN)C(=O)N[C@H](C(=O)N[C@H](C(=O)N[C@@H](CCCCN)C(=O)N[C@@H](CCCCN)C(=O)N[C@@H](CC(C)C)C(=O)N[C@@H](CC(C)C)C(=O)N[C@@H](CCC(N)=O)C(=O)N[C@@H](CO)C(=O)O)[C@@H](C)CC)[C@@H](C)CC [Prodrug 1, Peptide I-Melphalan] (H-[Phe(4-N(CH2CH2Cl)2)]YGLLGIAGPPGPPLYKKIIKKLLQS-OH; N-terminus and C-terminus assumed)
- times less toxic to normal cells (HUVEC; HUVE cells versus melanoma cells): 7 times

Compound: CC[C@H](C)[C@H](NC(=O)CNC(=O)[C@H](CC(C)C)NC(=O)[C@H](CC(C)C)NC(=O)CNC(=O)[C@H](Cc1ccc(O)cc1)NC(=O)CCCc1ccc(N(CCCl)CCCl)cc1)C(=O)N[C@@H](C)C(=O)NCC(=O)N1CCC[C@H]1C(=O)N1CCC[C@H]1C(=O)NCC(=O)N1CCC[C@H]1C(=O)N1CCC[C@H]1C(=O)N[C@@H](CC(C)C)C(=O)N[C@@H](Cc1ccc(O)cc1)C(=O)N[C@@H](CCCCN)C(=O)N[C@@H](CCCCN)C(=O)N[C@H](C(=O)N[C@H](C(=O)N[C@@H](CCCCN)C(=O)N[C@@H](CCCCN)C(=O)N[C@@H](CC(C)C)C(=O)N[C@@H](CC(C)C)C(=O)N[C@@H](CCC(N)=O)C(=O)N[C@@H](CO)C(=O)O)[C@@H](C)CC)[C@@H](C)CC [Prodrug 3, Peptide I-Chlorambucil] (Chlorambucil-YGLLGIAGPPGPPLYKKIIKKLLQS-OH)
- times less toxic to normal cells ([2]; HUVE cells versus melanoma cells, cell counting): 30 times
- effect of heparin on release of the chemotherapeutic agent from the peptide carrier (purified MMPs; presence of 10 μg/ml heparin, 2 hours incubation): inhibited the release
- release of free chlorambucil from the peptide carrier (purified MMPs; purified MMPs, PBS, 2 hours at 37° C., read at 305 nm, FIG. 6): can be released
- release of free chlorambucil from the peptide carrier [3]: can be released

Compound: YGLLGIAGPPGPPLYKKIIKKLLQS [peptide carrier]
- toxicity to HUVEC ([2]; HUVEC, 72 hours, FIG. 4): not toxic
